Data published in the NIST ThermoML archive (doi:10.1016/j.jct.2017.02.024).
Numbers after ± are expanded uncertainties.

Assay: mn = molality of the nth substance listed, in mol/kg
Settings: 100 kPa, Liquid; for viscosity: Capillary tube (Ostwald / Ubbelohde) method; for mass density: Vibrating tube method

N=C(N)NCCC[C@H](N)C(=O)O [L-arginine] + O
Settings | mass density, 293.15 K [kg/m3] | mass density, 303.15 K [kg/m3] | mass density, 313.15 K [kg/m3] | mass density, 323.15 K [kg/m3] | viscosity, 293.15 K [mPa·s] | viscosity, 303.15 K [mPa·s] | viscosity, 313.15 K [mPa·s] | viscosity, 323.15 K [mPa·s]
m1 = 0.1 | 1003.16 ± 1.4 | 1000.56 ± 1.4 | 997.08 ± 1.4 | 992.8 ± 1.4 | 1.054 ± 0.043 | 0.837 ± 0.034 | 0.684 ± 0.028 | 0.572 ± 0.023
m1 = 0.2 | 1007.98 ± 1.4 | 1005.3 ± 1.4 | 1001.76 ± 1.4 | 997.43 ± 1.4 | 1.109 ± 0.045 | 0.879 ± 0.036 | 0.716 ± 0.029 | 0.598 ± 0.024
m1 = 0.3 | 1012.67 ± 1.4 | 1009.89 ± 1.4 | 1006.3 ± 1.4 | 1001.92 ± 1.4 | 1.167 ± 0.047 | 0.922 ± 0.037 | 0.751 ± 0.03 | 0.625 ± 0.025
m1 = 0.4 | 1017.19 ± 1.4 | 1014.33 ± 1.4 | 1010.71 ± 1.4 | 1006.3 ± 1.4 | 1.229 ± 0.05 | 0.969 ± 0.039 | 0.786 ± 0.032 | 0.653 ± 0.026
m1 = 0.5 | 1021.57 ± 1.4 | 1018.66 ± 1.4 | 1014.97 ± 1.4 | 1010.54 ± 1.4 | 1.296 ± 0.052 | 1.019 ± 0.041 | 0.825 ± 0.033 | 0.682 ± 0.028
m1 = 0.6 | 1025.85 ± 1.4 | 1022.85 ± 1.4 | 1019.13 ± 1.4 | 1014.68 ± 1.4 | 1.366 ± 0.055 | 1.069 ± 0.043 | 0.863 ± 0.035 | 0.713 ± 0.029
m1 = 0.7 | 1030 ± 1.4 | 1026.94 ± 1.4 | 1023.18 ± 1.4 | 1018.67 ± 1.4 | 1.435 ± 0.058 | 1.121 ± 0.045 | 0.903 ± 0.037 | 0.743 ± 0.03

NCC(=O)O [2-aminoacetic acid] + O
Settings | mass density, 293.15 K [kg/m3] | mass density, 303.15 K [kg/m3] | mass density, 313.15 K [kg/m3] | mass density, 323.15 K [kg/m3] | viscosity, 293.15 K [mPa·s] | viscosity, 303.15 K [mPa·s] | viscosity, 313.15 K [mPa·s] | viscosity, 323.15 K [mPa·s]
m1 = 0.1 | 1001.39 ± 1.4 | 998.81 ± 1.4 | – | 991.09 ± 1.4 | 1.014 ± 0.041 | 0.809 ± 0.033 | 0.663 ± 0.027 | 0.556 ± 0.023
m1 = 0.2 | 1004.56 ± 1.4 | 1001.91 ± 1.4 | – | 994.12 ± 1.4 | 1.027 ± 0.042 | 0.82 ± 0.033 | 0.673 ± 0.027 | 0.565 ± 0.023
m1 = 0.3 | 1007.67 ± 1.4 | 1004.97 ± 1.4 | 1001.42 ± 1.4 | 997.11 ± 1.4 | 1.041 ± 0.042 | 0.832 ± 0.034 | 0.683 ± 0.028 | 0.574 ± 0.023
m1 = 0.4 | 1010.73 ± 1.4 | 1007.98 ± 1.4 | 1004.4 ± 1.4 | 1000.05 ± 1.4 | 1.055 ± 0.043 | 0.844 ± 0.034 | 0.693 ± 0.028 | 0.582 ± 0.024
m1 = 0.5 | 1013.74 ± 1.4 | 1010.94 ± 1.4 | 1007.32 ± 1.4 | 1002.96 ± 1.4 | 1.07 ± 0.043 | 0.856 ± 0.035 | 0.704 ± 0.029 | 0.591 ± 0.024
m1 = 0.6 | 1016.72 ± 1.4 | 1013.87 ± 1.4 | 1010.23 ± 1.4 | 1005.85 ± 1.4 | 1.085 ± 0.044 | 0.868 ± 0.035 | 0.714 ± 0.029 | 0.6 ± 0.024
m1 = 0.7 | 1019.66 ± 1.4 | 1016.75 ± 1.4 | 1013.06 ± 1.4 | 1008.69 ± 1.4 | 1.101 ± 0.045 | 0.881 ± 0.036 | 0.724 ± 0.029 | 0.61 ± 0.025

O [water] + CC(C)[C@H](N)C(=O)O
m2 = 0
Settings | mass density [kg/m3] | viscosity [mPa·s]
293.15 K | – | 1.002 ± 0.041
303.15 K | – | 0.798 ± 0.032
313.15 K | – | 0.654 ± 0.026
323.15 K | 988.02 ± 1.4 | 0.547 ± 0.022

OC[C@@H](O)[C@@H](O[C@H]1O[C@H](CO)[C@@H](O)[C@H](O)[C@H]1O)[C@H](O)[C@@H](O)CO [4-O-α-D-glucopyranosyl-D-glucitol] + O
Settings | mass density, m1 = 0.2 [kg/m3] | mass density, m1 = 0.4 [kg/m3] | mass density, m1 = 0.6 [kg/m3] | mass density, m1 = 0.8 [kg/m3] | mass density, m1 = 1 [kg/m3] | viscosity, m1 = 0.2 [mPa·s] | viscosity, m1 = 0.4 [mPa·s] | viscosity, m1 = 0.6 [mPa·s] | viscosity, m1 = 0.8 [mPa·s] | viscosity, m1 = 1 [mPa·s]
293.15 K | 1022.97 ± 1.4 | 1045.59 ± 1.4 | 1066.2 ± 1.4 | 1085.31 ± 1.4 | 1102.86 ± 1.4 | 1.202 ± 0.049 | 1.457 ± 0.059 | 1.761 ± 0.071 | 2.142 ± 0.087 | 2.61 ± 0.11
303.15 K | 1020.13 ± 1.4 | 1042.41 ± 1.4 | 1062.88 ± 1.4 | 1081.69 ± 1.4 | 1099.07 ± 1.4 | 0.95 ± 0.038 | 1.134 ± 0.046 | 1.353 ± 0.055 | 1.626 ± 0.066 | 1.954 ± 0.079
313.15 K | 1016.42 ± 1.4 | 1038.47 ± 1.4 | 1058.71 ± 1.4 | 1077.36 ± 1.4 | 1094.66 ± 1.4 | 0.77 ± 0.031 | 0.909 ± 0.037 | 1.073 ± 0.043 | 1.277 ± 0.052 | 1.511 ± 0.061
323.15 K | 1012.07 ± 1.4 | 1033.97 ± 1.4 | 1054.01 ± 1.4 | 1072.55 ± 1.4 | 1089.71 ± 1.4 | 0.641 ± 0.026 | 0.747 ± 0.03 | 0.874 ± 0.035 | 1.027 ± 0.042 | 1.204 ± 0.049

O [water] + NCC(=O)O
m2 = 0
Settings | mass density [kg/m3] | viscosity [mPa·s]
293.15 K | – | 1.002 ± 0.041
303.15 K | – | 0.798 ± 0.032
313.15 K | – | 0.654 ± 0.026
323.15 K | 988.02 ± 1.4 | 0.547 ± 0.022
